This note sets out measurements from ChEMBL document CHEMBL4819024, “Synthesis and evaluation of andrographolide derivatives as potent anti-osteoporosis agents in vitro and in vivo” (Eur J Med Chem, 2021).

Activity calls are given as the source filed them. The calls are words filed in the database; no cut-off is given here.

The test system of data set [1] is BMMC. In words: Anti-osteoporosis activity in C57BL/6 mouse BMM cells assessed as inhibition of M-CSF/RANKL-induced osteoclastogenesis by measuring reduction in multinucleated TRAP+ cells incubated for 5 days with media replenishment for every 48 hrs measured by TRAP-staining based analysis. The following applies: C57BL/6, BMMC. It counts as functional, cell-based.

The nature of data set [2]: Cytotoxicity against C57BL/6 mouse BMM cells assessed as reduction in cell viability measured after 48 hrs in presence of M-CSF by CCK8 assay. It counts as cell-based, BMMC. Conditions: BMM cells (bone marrow-derived).
Data set [3] relates to Mus musculus. Description: Antiosteoporotic activity against OVX-induced bone loss C57BL/6 mouse model assessed as increase in trabecular number in femoral metaphysis at 10 mg/kg, po QD for 4 weeks. The class given is functional, organism-based. The following applies: dose 10.0 mg/kg/day.
In data set [4] the test system is Mus musculus. Description: Antiosteoporotic activity against OVX-induced bone loss C57BL/6 mouse model assessed as increase in trabecular thickness in femoral metaphysis at 10 mg/kg, po QD for 4 weeks. Conditions: dose 10.0 mg/kg/day. It counts as functional, organism-based.
The subject of data set [5] is Mus musculus. Description: Antiosteoporotic activity against OVX-induced bone loss C57BL/6 mouse model assessed as decrease in trabecular spacing in femoral metaphysis at 10 mg/kg, po QD for 4 weeks. It counts as functional, organism-based. Conditions: dose 10.0 mg/kg/day.
Data set [6] relates to Mus musculus. In words: Antiosteoporotic activity against OVX-induced bone loss C57BL/6 mouse model assessed as decrease in ACP5 level in serum at 10 mg/kg, po QD for 4 weeks. It counts as functional, organism-based. The following applies: dose 10.0 mg/kg/day.
Data set [7] has as its system BMMC. Description: Anti-osteoporosis activity in C57BL/6 mouse BMM cells assessed as inhibition of M-CSF/RANKL-induced bone resorption by measuring suppression of reabsorbing pits formation after 48 hrs by hydroxyapatite assay using Leica inverted microscope. The class given is functional, cell-based. Conditions: dose 1-10 µM.
For data set [8], the system named is Mus musculus. Description: Antiosteoporotic activity against OVX-induced bone loss C57BL/6 mouse model assessed as increase in bone volume/total bone volume in femoral metaphysis at 10 mg/kg, po QD for 4 weeks. Conditions: dose 10.0 mg/kg/day. The class given is functional, organism-based.

In the case of `C=C1CC[C@@H]2[C@](C)(CNCCc3ccc(C(F)(F)F)cc3)[C@H](O)CC[C@@]2(C)[C@@H]1/C=C/C1=CCOC1=O`, the IC50 in the data set with BMMC [1] was determined as 2980 nM. Same read-out and setting: the result for `C=C1CC[C@@H]2[C@](C)(CNCc3ccc(OC)c(OC)c3)[C@H](O)CC[C@@]2(C)[C@@H]1/C=C/C1=CCOC1=O` reads 3740 nM; that for `C=C1CC[C@@H]2[C@](C)(CNCCc3cccc(OC)c3)[C@H](O)CC[C@@]2(C)[C@@H]1/C=C/C1=CCOC1=O`, 5450 nM. As for `C=C1CC[C@@H]2[C@](C)(CNCc3cccc(OC)c3)[C@H](O)CC[C@@]2(C)[C@@H]1/C=C/C1=CCOC1=O`, in the data set with BMMC [1], the 50% inhibitory concentration (IC50) was found to be 780 nM.

Regarding `C=C1CC[C@H]2[C@@](C)(CC[C@@H](O)[C@@]2(C)C(=O)NCc2ccc(OC)cc2)[C@@H]1/C=C/C1=CCOC1=O`, the IC50 in the data set on BMMC [1] amounted to 6530 nM.

Take `C=C1CC[C@@H]2[C@](C)(CNCCc3ccc(F)cc3)[C@H](O)CC[C@@]2(C)[C@@H]1/C=C/C1=CCOC1=O`: in the data set on BMMC [1], the IC50 was determined as 480 nM. With `C=C1CC[C@@H]2[C@](C)(CNCc3ccncc3)[C@H](O)CC[C@@]2(C)[C@@H]1/C=C/C1=CCOC1=O`, the IC50 in the data set on BMMC [1] was determined as 2030 nM. Regarding `C=C1CC[C@H]2[C@@](C)(CC[C@@H](O)[C@@]2(C)C(=O)NCCc2ccc(OC)cc2)[C@@H]1/C=C/C1=CCOC1=O`, the IC50 in the data set with BMMC [1] was more than 30000 nM. Same read-out and setting: the result for `C=C1CC[C@@H]2[C@](C)(CNCc3ccc(C#N)cc3)[C@H](O)CC[C@@]2(C)[C@@H]1/C=C/C1=CCOC1=O` reads 1130 nM. On to `C=C1CC[C@@H]2[C@](C)(CO)[C@H](O)CC[C@@]2(C)[C@@H]1CC=O`, for which, in the data set on BMMC [1], the IC50 is more than 30000 nM. Further, in data set [2], the CC50 at 48 h was more than 30 µM. Consider `C=C1CC[C@@H]2[C@](C)(CNCc3nccs3)[C@H](O)CC[C@@]2(C)[C@@H]1/C=C/C1=CCOC1=O`, for which the IC50 with BMMC [1] amounted to 700 nM. Take `C=C1CC[C@@H]2[C@](C)(CO)[C@H](O)CC[C@@]2(C)[C@@H]1C/C=C(/C(=O)O)[C@H](O)CO`: the IC50 in the data set on BMMC [1] is more than 30000 nM. Besides, in data set [2], the CC50 at 48 h was more than 30 µM. In the case of `C=C1CC[C@@H]2[C@](C)(CNCc3ccc([N+](=O)[O-])cc3)[C@H](O)CC[C@@]2(C)[C@@H]1/C=C/C1=CCOC1=O`, in the data set with BMMC [1], the IC50 is 1340 nM. For `C=C1CC[C@@H]2[C@](C)(CNCc3ccc(Br)cc3)[C@H](O)CC[C@@]2(C)[C@@H]1/C=C/C1=CCOC1=O`, in the data set with BMMC [1], the IC50 is 430 nM. Consider `C=C1CC[C@H]2[C@@](C)(CC[C@@H](O)[C@@]2(C)C(=O)NCCc2cccs2)[C@@H]1/C=C/C1=CCOC1=O`, for which the IC50 with BMMC [1] is more than 30000 nM.

For `C=C1CC[C@@H]2[C@](C)(CNCc3ccccc3)[C@H](O)CC[C@@]2(C)[C@@H]1/C=C/C1=CCOC1=O`, in the data set with BMMC [1], the IC50 turned out to be 960 nM. For `C=C1CC[C@@H]2[C@](C)(CNCCc3ccccc3)[C@H](O)CC[C@@]2(C)[C@@H]1/C=C/C1=CCOC1=O`, the IC50 with BMMC [1] is 1020 nM. The same measure, in the same setting: the same measure for `C=C1CC[C@H]2[C@@](C)(CC[C@@H](O)[C@@]2(C)C(=O)NCc2ccccc2)[C@@H]1/C=C/C1=CCOC1=O`: 19400 nM; for `C=C1CC[C@@H]2[C@](C)(CNCc3ccc(Cl)cc3)[C@H](O)CC[C@@]2(C)[C@@H]1/C=C/C1=CCOC1=O`: 420 nM. On to `C=C1CC[C@H]2[C@@](C)(CC[C@@H](O)[C@@]2(C)C(=O)NCCc2ccccc2)[C@@H]1/C=C/C1=CCOC1=O`, for which the IC50 in the data set with BMMC [1] was more than 30000 nM. With `C=C1CC[C@@H]2[C@](C)(CO)[C@H](O)CC[C@@]2(C)[C@@H]1C/C=C1/C(=O)OC[C@H]1O` [ANDROGRAPHOLIDE], the outcome in the data set on Mus musculus [3], in the data set on Mus musculus [4], in the data set on Mus musculus [5], in the data set on Mus musculus [6], in the data set on BMMC [7] and in the data set with Mus musculus [8] was Active. In the data set on BMMC [1], the IC50 worked out at 1010 nM. In data set [2], the CC50 at 48 h was 10.3 µM. Regarding `C=C1CC[C@@H]2[C@](C)(CNCc3ccc(C)cc3)[C@H](O)CC[C@@]2(C)[C@@H]1/C=C/C1=CCOC1=O`, in the data set on BMMC [1], the IC50 was 740 nM. As to `C=C1CC[C@@H]2[C@](C)(CNCc3cccs3)[C@H](O)CC[C@@]2(C)[C@@H]1/C=C/C1=CCOC1=O`, the IC50 with BMMC [1] was 1070 nM. `C=C1CC[C@@H]2[C@](C)(CO)[C@H](O)CC[C@@]2(C)[C@@H]1CCC1C(=O)OC[C@H]1O` (stereo partly drawn): in the data set on BMMC [1], the IC50 was more than 30000 nM. Besides, in data set [2], the half-maximal cytotoxic concentration (CC50) at 48 h was more than 30 µM. On to `C=C1CC[C@@H]2[C@](C)(CO)[C@H](O)CC[C@@]2(C)[C@@H]1/C=C/C1=CCOC1=O`, for which, in the data set with BMMC [1], the IC50 was 8340 nM. Further, the CC50 at 48 h in data set [2] was more than 30 µM.

Take `C=C1CC[C@@H]2[C@](C)(CNCc3ccco3)[C@H](O)CC[C@@]2(C)[C@@H]1/C=C/C1=CCOC1=O`: the IC50 in the data set on BMMC [1] was 1830 nM. Turning to `C=C1CC[C@@H]2[C@](C)(CNCCc3ccc(OC)cc3)[C@H](O)CC[C@@]2(C)[C@@H]1/C=C/C1=CCOC1=O`, the IC50 with BMMC [1] was 1880 nM.

For the compound `C=C1CC[C@@H]2[C@](C)(CNCCc3cccs3)[C@H](O)CC[C@@]2(C)[C@@H]1/C=C/C1=CCOC1=O`, the IC50 in the data set with BMMC [1] was 3020 nM. Take `C=C1CC[C@@H]2[C@](C)(CO)[C@H](O)CC[C@@]2(C)[C@@H]1C/C=C1\C=COC1=O`: the IC50 with BMMC [1] came out at 2770 nM. Further, the 50% cytotoxic concentration (CC50) at 48 h in data set [2] was determined as 20.6 µM.

Regarding `C=C1CC[C@@H]2[C@](C)(CNCc3ccc4c(c3)CC=N4)[C@H](O)CC[C@@]2(C)[C@@H]1/C=C/C1=CCOC1=O`, the IC50 in the data set with BMMC [1] is 550 nM. Take `C=C1CC[C@H]2[C@@](C)(CC[C@@H](O)[C@@]2(C)C(=O)NCCc2ccc(F)cc2)[C@@H]1/C=C/C1=CCOC1=O`: the IC50 in the data set on BMMC [1] was more than 30000 nM. For the compound `C=C1CC[C@@H]2[C@](C)(CNCCc3ccc(C)cc3)[C@H](O)CC[C@@]2(C)[C@@H]1/C=C/C1=CCOC1=O`, in the data set on BMMC [1], the IC50 turned out to be 870 nM. As for `C=C1CC[C@@H]2[C@](C)(CNCc3ccc(OC)cc3)[C@H](O)CC[C@@]2(C)[C@@H]1/C=C/C1=CCOC1=O`, in the data set on BMMC [1], the IC50 came to 750 nM. As to `C=C1CC[C@H]2[C@@](C)(CC[C@@H](O)[C@@]2(C)C(=O)NCc2ccc(Br)cc2)[C@@H]1/C=C/C1=CCOC1=O`, in the data set with BMMC [1], the IC50 was found to be 3450 nM. The same measure, in the same setting: the same measure for `NCCCC(O)(P(=O)(O)O)P(=O)(O)O` [ALENDRONATE SODIUM]: 1710 nM; for `C=C1CC[C@@H]2[C@](C)(CNCc3ccc(O)c(O)c3)[C@H](O)CC[C@@]2(C)[C@@H]1/C=C/C1=CCOC1=O`: 9440 nM.
